Assay results reported in patent publication US8258151B2, “3-aminoimidazo [1,2-A] pyridine derivatives as SGLT inhibitors” (Merck Patent GmbH, priority 2006, dated 2012).
pIC50: −log10 of the molar value.

Key:
SGLT1 = target: T1, SGLT1 (Homo sapiens, UniProt P13866); experiment: SGLT1 activity measurement: 14C-AMG uptake in BHK cells transfected with SGLT1; format: cell-based; conditions: AMG 50 μM, 37° C., 90 min
T1 construct: expressed in transfected cells
T1 sequence (P13866 1-664): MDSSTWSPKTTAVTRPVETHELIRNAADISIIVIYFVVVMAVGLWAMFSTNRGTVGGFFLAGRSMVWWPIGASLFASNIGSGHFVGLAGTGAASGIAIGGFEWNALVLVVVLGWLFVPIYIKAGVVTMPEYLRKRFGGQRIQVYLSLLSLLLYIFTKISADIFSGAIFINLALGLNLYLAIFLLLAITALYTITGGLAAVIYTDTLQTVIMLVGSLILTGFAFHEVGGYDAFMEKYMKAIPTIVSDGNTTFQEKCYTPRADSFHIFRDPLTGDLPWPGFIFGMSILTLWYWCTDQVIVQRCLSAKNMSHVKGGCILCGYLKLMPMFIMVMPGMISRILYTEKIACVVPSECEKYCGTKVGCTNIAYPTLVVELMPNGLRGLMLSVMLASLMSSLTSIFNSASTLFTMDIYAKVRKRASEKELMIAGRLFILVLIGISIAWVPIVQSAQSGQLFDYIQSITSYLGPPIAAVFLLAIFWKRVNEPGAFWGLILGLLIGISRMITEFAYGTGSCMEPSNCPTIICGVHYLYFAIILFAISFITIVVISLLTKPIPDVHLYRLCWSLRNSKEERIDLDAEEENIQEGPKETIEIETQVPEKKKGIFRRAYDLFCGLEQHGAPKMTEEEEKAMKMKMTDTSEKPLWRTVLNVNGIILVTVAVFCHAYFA
Excerpt: (§1) The compounds can be tested on their SGLT inhibition properties by means of BHK cells expressing SGLT1 and SGLT2. The production of the cells and the testing can be carried out as described below.
To construct the SGLT1 expression vector (KL225), the SLC5A1 gene (homologous to NM_000343) was amplified from a cDNA library using standard PCR technology and cloned over NheI/XhoI sites into pcDNA3.1 expression vector (Invitrogen) containing neomycin as a selection marker. In this vector, transcription uses the enhancer/promoter of human cytomegalovirus.
The final vector KL225 together with an additional vector containing a dihydrofolate reductase gene as a selection marker was introduced into cells. Transfection into BHK21 cells (ATCC CCL-10), cultivated in DMEM medium (GIBCO/BRL), supplemented with 10% foetal calf serum (FCS) and 20 mM glutamine, was carried out using calcium phosphate transfections according to Graham, F. L. and van der Ebb, A. J. (1973), Virology 52: 456 with 5-20 μg of uncut plasmids for 10^7 cells. Stable transfectants were selected in medium containing 1 mg/ml of G418 (GIBCO/BRL) and 20-5000 nM methotrexate as final concentration, where only cells which expressed the neomycin gene and overexpressed the dhfr gene were able to grow. After growth for 2-3 weeks, the cells were cloned (0.5 cells/well) and the clones were investigated for SGLT expression in the radioactive uptake assay. […]
(§2) A 96-well cell-based assay was developed and adapted to HTS requirements:
(§3) BHK cells (transfected with SGLT1 or SGLT2) were seeded into 96-well microtitre plates (Cultureplates, Perkin Elmer). After at least 24 h, medium was removed and the cell layer was washed with assay buffer (140 mM NaCl, 2 mM KCl, 1 mM CaCl2, 1 mM MgCl2, 10 mM HEPES, 5 mM Tris, adjusted with 1 M KOH to pH 7.4). After addition of 40 μl of assay buffer, 50 μl of AMG (50 μM for SGLT1 and 2 mM for SGLT2) in the presence or absence of compounds, the cells were incubated in a total volume of 100 μl at 37° C. for 90 min. Supernatant was removed by suction and discarded. The cells were washed and lysed by addition of 50 μl water. After 10 minutes at room temperature 200 μl Microscint 40 (Perkin Elmer) were added. The radioactivity was counted in a Topcount microplate scintillation counter (Perkin Elmer). The non-specific uptake was determined in sodium-free assay buffer (266 mM sucrose, 2 mM KCl, 1 mM CaCl2, 1 mM MgCl2, 10 mM HEPES, 5 mM Tris, adjusted with 1 M KOH to pH 7.4).

SGLT2 = target: T2, SGLT2 (Homo sapiens, UniProt P31639); experiment: SGLT2 activity measurement: 14C-AMG uptake in BHK cells transfected with SGLT2; format: cell-based; conditions: AMG 2 mM, 37° C., 90 min
T2 construct: expressed in transfected cells
T2 sequence (P31639 1-672): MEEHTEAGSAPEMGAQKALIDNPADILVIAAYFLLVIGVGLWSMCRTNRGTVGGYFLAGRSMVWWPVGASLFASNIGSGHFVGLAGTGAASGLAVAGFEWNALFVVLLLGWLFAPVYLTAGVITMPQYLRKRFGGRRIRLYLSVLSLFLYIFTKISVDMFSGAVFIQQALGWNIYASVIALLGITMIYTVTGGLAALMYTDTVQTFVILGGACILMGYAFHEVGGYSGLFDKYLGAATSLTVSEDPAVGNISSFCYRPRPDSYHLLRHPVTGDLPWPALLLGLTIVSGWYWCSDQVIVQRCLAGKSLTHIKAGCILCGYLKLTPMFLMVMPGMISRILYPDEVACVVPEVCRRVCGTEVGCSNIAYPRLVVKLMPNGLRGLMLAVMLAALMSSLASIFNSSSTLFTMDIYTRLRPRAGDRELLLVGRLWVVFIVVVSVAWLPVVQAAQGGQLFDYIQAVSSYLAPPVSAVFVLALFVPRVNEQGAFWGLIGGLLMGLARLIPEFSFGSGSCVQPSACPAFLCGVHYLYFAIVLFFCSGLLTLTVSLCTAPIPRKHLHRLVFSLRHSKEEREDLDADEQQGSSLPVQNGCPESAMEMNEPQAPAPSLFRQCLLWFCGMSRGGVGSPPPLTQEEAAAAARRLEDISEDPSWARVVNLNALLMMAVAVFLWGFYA
Excerpt: as §1
To construct the SGLT2 expression vector (KL224), the SLC5A2 gene (homologous to NM_003041) was amplified from a cDNA library using standard PCR technology and cloned over NheI/XhoI sites into PCI-neo expression vector (Promega) containing neomycin as a selection marker. In this vector, transcription used the enhancer/promoter of human cytomegalovirus and the SV40 polyadenylation signal.
The final vector KL224 together with an additional vector containing a dihydrofolate reductase gene as a selection marker was introduced into cells. Transfection into BHK21 cells (ATCC CCL-10), cultivated in DMEM medium (GIBCO/BRL), supplemented with 10% foetal calf serum (FCS) and 20 mM glutamine, was carried out using calcium phosphate transfections according to Graham, F. L. and van der Ebb, A. J. (1973), Virology 52: 456 with 5-20 μg of uncut plasmids for 10^7 cells. Stable transfectants were selected in medium containing 1 mg/ml of G418 (GIBCO/BRL) and 20-5000 nM methotrexate as final concentration, where only cells which expressed the neomycin gene and overexpressed the dhfr gene were able to grow. After growth for 2-3 weeks, the cells were cloned (0.5 cells/well) and the clones were investigated for SGLT expression in the radioactive uptake assay.
Principally, uptake of ^14C-α-methyl-D-glucopyranoside (AMG) in, for example, Xenopus oocytes injected with the corresponding cRNA has been described (for example Wen-Sen Lee et al. (1994), J. Biol. Chem. 269, 12032-12039; Guofeng You et al. (1995), J. Biol. Chem. 270, 29365-29371).
as §2, §3

Compound | pIC50 (SGLT1) | pIC50 (SGLT2)
CCc1cccc(OCC(N)=O)c1-c1nc2ccc(F)cn2c1Nc1c(Cl)cccc1Cl [Compound A241, 2-[2-(Aminocarbonylmethoxy)-6-ethylphenyl]-3-(2,6-dichlorophenylamino)-6-fluoroimidazo-[1,2-a]pyridine] | 6.00 to 8.00 | 6.00 to 8.00
COc1cc(C)c(-c2nc3ccc(F)cn3c2Nc2ccc(F)cc2F)c(OCC(N)=O)c1 [Compound A229, 2-[2-(Aminocarbonylmethoxy)-4-methoxy-6-methylphenyl]-3-(2,4-difluorophenylamino)-6-fluoroimidazo[1,2-a]pyridine] | < 5.00 | 5.00 to 6.00
CCc1cc(OS(=O)(=O)N(C)C)cc(OCC(N)=O)c1-c1nc2ccc(F)cn2c1Nc1c(C)cccc1C [Compound A228, 2-[2-(Aminocarbonylmethoxy)-4-dimethyl-sulfamoyloxy-6-ethylphenyl]-3-(2,6-dimethyl-phenylamino)-6-fluoroimidazo[1,2-a]pyridine] | < 5.00 | 6.00 to 8.00
CCc1cc(OCC(O)CO)cc(OCC(N)=O)c1-c1nc2ccc(F)cn2c1Nc1c(C)cccc1C (stereo not drawn) [Compound A216, 2-[2-(Aminocarbonylmethoxy)-4-(2,3-dihydroxy-propoxy)-6-ethylphenyl]-3-(2,6-dimethylphenyl-amino)-6-fluoroimidazo[1,2-a]pyridine] | < 5.00 | 6.00 to 8.00
Cc1cccc(C)c1Nc1c(-c2c(C)cc(OS(=O)(=O)N(C)C)cc2OCC(N)=O)nc2ccc(F)cn12 [Compound A213] | < 5.00 | 6.00 to 8.00
CCc1cc(OC)cc(OCC(N)=O)c1-c1nc2ccc(F)cn2c1Nc1c(F)cccc1F [Compound A220, 2-[2-(Aminocarbonylmethoxy)-4-methoxy-6-ethylphenyl]-3-(2,6-difluorophenylamino)-6-fluoroimidazo[1,2-a]pyridine] | 5.00 to 6.00 | 6.00 to 8.00
COc1cc(C)c(-c2nc3ccccn3c2Nc2c(C)cccc2C)c(OCC(N)=O)c1 [Compound A172, 2-[2-(Aminocarbonylmethoxy)-4-methoxy-6-methylphenyl]-3-(2,6-dimethylphenylamino)-imidazo[1,2-a]pyridine] | < 5.00 | 6.00 to 8.00
Cc1cccc(C)c1Nc1c(-c2c(C)cc(OCC(N)=O)cc2OCC(N)=O)nc2ccc(F)cn12 [Compound A178, 2-[2-(Aminocarbonylmethoxy)-4-(amino-carbonylmethoxy)-6-methylphenyl]-3-(2,6-dimethylphenylamino)-6-fluoroimidazo[1,2-a]-pyridine] | < 5.00 | 6.00 to 8.00
COc1cc(OCC(N)=O)c(-c2nc3ccc(F)cn3c2Nc2c(C)cccc2C)cc1OC [Compound A189, 2-[2-(Aminocarbonylmethoxy)-4,5-dimethoxy-phenyl]-3-(2,6-dimethylphenylamino)-6-fluoro-imidazo[1,2-a]pyridine] | – | 5.00 to 6.00
CCc1cc(OC)cc(OCC(N)=O)c1-c1nc2ccc(C(=O)O)cn2c1Nc1c(C)cccc1C [Compound A223, 2-[2-(Aminocarbonylmethoxy)-4-methoxy-6-ethylphenyl]-3-(2,6-dimethylphenylamino)-6-carboxyimidazo[1,2-a]pyridine] | – | 5.00 to 6.00
Cc1cccc(C)c1Nc1c(-c2ccccc2OCC(N)=O)nc2cccc(Cl)n12 [Compound A12, 2-[2-(Aminocarbonylmethoxy)phenyl]-3-(2,6-dimethylphenylamino)-5-chloroimidazo[1,2-a]-pyridine] | – | 5.00 to 6.00
Cc1cccc(C)c1Nc1c(-c2c(C)cc(OCCN(C)C)cc2OCC(N)=O)nc2ccccn12 [Compound A119, 2-[2-(Aminocarbonylmethoxy)-4-(2-dimethyl-aminoethoxy)-6-methylphenyl]-3-(2,6-dimethyl-phenylamino)imidazo[1,2-a]pyridine] | – | 5.00 to 6.00
COc1cc(C)c(-c2nc3c(O)cccn3c2Nc2c(C)cccc2C)c(OCC(N)=O)c1 [Compound A193, 2-[2-(Aminocarbonylmethoxy)-4-methoxy-6-methylphenyl]-3-(2,6-dimethylphenylamino)-8-hydroxyimidazo[1,2-a]pyridine] | – | 5.00 to 6.00
